Laboratory results as given in patent US12285407B2, “Bis-indolylmethane derivatives and uses thereof” (The University of The West Indies, priority 2018, dated 2025).
In brackets after ≈: the same amount, converted by molar mass. Where two headings read alike, the source gives them in different places.

Assays:
[1] = system: Escherichia coli O157:H7; assay: Rescue concentrations of SP-BIM that reactivate antibiotic; format: cell-based; details: Escherichia coli
[2] = system: Klebsiella pneumoniae; assay: Checkerboard synergy (FICI) of antibiotics with SP-BIM; format: cell-based; details: for MIC: 24 h, antibiotic alone, read-out: MIC antibiotic only
[3] = system: Candida albicans; assay: as above; parameters: MIC SP-BIM 13 only / MIC in combination: Antibiotic / MIC antibiotic only: unit not given beside the values
[4] = system: Escherichia coli; assay: microbe, parasite or virus in culture; format: cell-based; details: read-out: MIC of antibiotic, No compound
[5] = system: MRSA; assay: Adjuvant broth microdilution (antibiotic MIC with SP-BIM at 50 μg/mL); format: cell-based, Staphylococcus aureus; details: Staphylococcus aureus, antibiotic alone, Table 4, read-out: MIC of antibiotic, No compound
[6] = system: Enterococcus faecium; assay: Checkerboard synergy (FICI) of antibiotics with SP-BIM; format: cell-based; details: Enterococcus faecium, Enterococcus faecium; for MIC: 24 h, antibiotic alone, read-out: MIC antibiotic only
[7] = system: Staphylococcus aureus; assay: as above; format: cell-based; details: Staphylococcus aureus, Staphylococcus aureus; for MIC: 24 h, antibiotic alone, read-out: MIC antibiotic only
[8] = system: Bacillus cereus; assay: as above; format: cell-based; details: for MIC: 24 h, antibiotic alone, read-out: MIC antibiotic only
[9] = system: Streptococcus pneumoniae; assay: as above; format: cell-based; details: for MIC: 24 h, antibiotic alone, read-out: MIC antibiotic only
[10] = system: Klebsiella pneumoniae; assay: Adjuvant broth microdilution (antibiotic MIC with SP-BIM at 50 μg/mL); format: cell-based; details: Klebsiella pneumoniae; antibiotic alone; Table 7; read-out: MIC of antibiotic, No compound
[11] = system: Escherichia coli; assay: Checkerboard synergy (FICI) of antibiotics with SP-BIM; parameters: MIC SP-BIM 13 only / MIC in combination: Antibiotic: unit not given beside the values; details: for MIC: 24 h
[12] = SP-BIM 9 in combination with the labelled antibiotic
[13] = SP-BIM 13 in combination with the labelled antibiotic
[14] = antibiotic in combination with SP-BIM 9
[15] = antibiotic in combination with SP-BIM 13
[16] = MIC of the antibiotic in combination with SP-BIM 13
[17] = Streptococcus pneumonia (title: Streptococcus pyogenes), antibiotic + SP-BIM 9
[18] = Streptococcus pneumoniae, antibiotic + SP-BIM 13

## Oc1ccc2[nH]cc(C(c3cc(O)c(O)c(O)c3)c3c[nH]c4ccc(O)cc34)c2c1 [SP-BIM 27, 5-(bis(5-hydroxy-1H-indol-3-yl)methyl)benzene-1,2,3-triol]
[1]; read-out: MIC of SP-BIM 27
  MIC: > 250 µg/mL

## Oc1ccc2[nH]cc(C(c3cccc(Br)c3)c3c[nH]c4ccc(O)cc34)c2c1 [SP-BIM 28, 3,3′-((3-bromophenyl)methylene)bis(1H-indol-5-ol)]
[1]; read-out: MIC SP-BIM 28
  MIC: 250 µg/mL (≈ 577 µM)

## COc1cc(Cc2cnc(N)nc2N)cc(OC)c1OC [Trimethoprim, trimethoprim]
[2]; SP-BIM 9 checkerboard
  MIC: 8 µg/mL
[2]; SP-BIM 13 checkerboard
  MIC: 8 µg/mL
[2]; [12]
  FIC of SP-BIM 9: 0.5
[2]; [13]
  FIC of SP-BIM 13: 1.0
[2]; antibiotic + SP-BIM 9
  Interpretation: Indifferent (Indifferent: FICI>1.0-4.0)
  Σ FIC: <1.5
[2]; antibiotic + SP-BIM 13
  Interpretation: Indifferent (Indifferent: FICI>1.0-4.0)
  Σ FIC: <3.0
[2]; [14]
  MIC in combination, Antibiotic: 8 µg/mL
[2]; [15]
  MIC in combination, Antibiotic: 16 µg/mL
[2]; in combination with SP-BIM 9
  FIC of antibiotic: 1
[2]; in combination with SP-BIM 13
  FIC of antibiotic: 2.0
[3]; 24 h, read-out: MIC antibiotic only
  MIC: > 250 µg/mL
[3]; [16]
  MIC in combination: Antibiotic: 250
[3]; [13]
  FIC of SP-BIM 13: 1.0
[3]; antibiotic + SP-BIM 13
  Interpretation: Indifferent (Indifferent: FICI>1.0-4.0)
  Σ FIC: <2.0
[3]; combination with SP-BIM 13
  FIC of antibiotic: 1.0
[4]
  MIC: 2 µg/mL
[5]
  MIC: 250 µg/mL
[6]; SP-BIM 9 checkerboard
  MIC: 4 µg/mL
[6]; SP-BIM 13 checkerboard
  MIC: 4 µg/mL
[6]; [13]
  FIC of SP-BIM 13: 1.0
[6]; antibiotic + SP-BIM 13
  Interpretation: Antagonistic (Antagonistic: FICI≥4.0)
  Σ FIC: 5.0
[6]; [15]
  MIC in combination, Antibiotic: 16 µg/mL
[6]; in combination with SP-BIM 13
  FIC of antibiotic: 4.0
[7]; SP-BIM 9 checkerboard
  MIC: 1 µg/mL
[7]; SP-BIM 13 checkerboard
  MIC: 1 µg/mL
[7]; [12]
  FIC of SP-BIM 9: 0.02
[7]; [13]
  FIC of SP-BIM 13: 0.5
[7]; antibiotic + SP-BIM 9
  Interpretation: Indifferent (Indifferent: FICI>1.0-4.0)
  Σ FIC: <2.02
[7]; antibiotic + SP-BIM 13
  Interpretation: Antagonistic (Antagonistic: FICI≥4.0)
  Σ FIC: 4.5
[7]; [14]
  MIC in combination, Antibiotic: 2.0 µg/mL
[7]; [15]
  MIC in combination, Antibiotic: 4 µg/mL
[7]; in combination with SP-BIM 9
  FIC of antibiotic: 2.00
[7]; in combination with SP-BIM 13
  FIC of antibiotic: 4.0
[8]; SP-BIM 9 checkerboard
  MIC: > 250 µg/mL
[8]; SP-BIM 13 checkerboard
  MIC: 250 µg/mL
[8]; SP-BIM 9 concentration in combination with the labelled antibiotic
  MIC in combination, SP-BIM 9: 16 µg/mL
[8]; [12]
  FIC of SP-BIM 9: 0.064
[8]; [13]
  FIC of SP-BIM 13: 1.0
[8]; antibiotic + SP-BIM 9
  Interpretation: Synergy (Synergy: FICI≤0.5)
  Σ FIC: <0.1
[8]; antibiotic + SP-BIM 13
  Interpretation: Indifferent (Indifferent: FICI>1.0-4.0)
  Σ FIC: 2.0
[8]; [14]
  MIC in combination, Antibiotic: 2 µg/mL
[8]; [15]
  MIC in combination, Antibiotic: 250 µg/mL
[8]; in combination with SP-BIM 9
  FIC of antibiotic: 0.008
[8]; in combination with SP-BIM 13
  FIC of antibiotic: 1.00
[9]; Streptococcus pneumonia (title: Streptococcus pyogenes), SP-BIM 9 in combination with the labelled antibiotic
  FIC of SP-BIM 9: 0.06
[9]; [17]
  Interpretation: Synergy (Synergy: FICI≤0.5)
  Σ FIC: <0.31
[9]; Streptococcus pneumonia (title: Streptococcus pyogenes), antibiotic in combination with SP-BIM 9
  MIC in combination, Antibiotic: 8 µg/mL
[9]; Streptococcus pneumonia (title: Streptococcus pyogenes), in combination with SP-BIM 9
  FIC of antibiotic: 0.25
[9]; Streptococcus pneumoniae, Streptococcus pneumonia (title: Streptococcus pyogenes), SP-BIM 9 checkerboard
  MIC: 32 µg/mL
[9]; Streptococcus pneumoniae, Streptococcus pneumoniae, SP-BIM 13 checkerboard
  MIC: 32 µg/mL
[9]; Streptococcus pneumoniae, SP-BIM 13 in combination with the labelled antibiotic
  FIC of SP-BIM 13: 1.0
[9]; [18]
  Interpretation: Antagonistic (Antagonistic: FICI≥4.0)
  Σ FIC: <4.9
[9]; Streptococcus pneumoniae, antibiotic in combination with SP-BIM 13
  MIC in combination, Antibiotic: 125 µg/mL
[9]; Streptococcus pneumoniae, in combination with SP-BIM 13
  FIC of antibiotic: 3.9
[10]
  MIC: 16 µg/mL
[11]; read-out: MIC antibiotic only, Escherichia coli, antibiotic alone
  MIC: 2 µg/mL
[11]; read-out: MIC antibiotic only, Escherichia coli, antibiotic alone, SP-BIM 9 checkerboard
  MIC: 2 µg/mL
[11]; [16]
  MIC in combination: Antibiotic: 8
[11]; [12]
  FIC of SP-BIM 9: 0.128
[11]; [13]
  FIC of SP-BIM 13: 1.0
[11]; antibiotic + SP-BIM 9
  Interpretation: Antagonistic (Antagonistic: FICI≥4.0)
  Σ FIC: <4.1
[11]; antibiotic + SP-BIM 13
  Interpretation: Antagonistic (Antagonistic: FICI≥4.0)
  Σ FIC: <5.0
[11]; [14]
  MIC in combination, Antibiotic: 8 µg/mL
[11]; combination with SP-BIM 13
  FIC of antibiotic: 4.0
[11]; in combination with SP-BIM 9
  FIC of antibiotic: 4
